According to ChEMBL document CHEMBL2331553, “Discovery of N-[[1-[2-(tert-butylcarbamoylamino)ethyl]-4-(hydroxymethyl)-4-piperidyl]methyl]-3,5-dichloro-benzamide as a selective T-type calcium channel (Cav3.2) inhibitor” (Bioorg Med Chem Lett, 2013):
Values after ≈ are worked out from the molar mass of the structure shown.

Tests used:
[1] = target: T1, Voltage-dependent T-type calcium channel subunit alpha-1H (Homo sapiens, UniProt O95180); assay: Inhibition of human T-type calcium channel Cav3.2 expressed in T-Rex293 cells by whole cell patch clamp assay; format: cell-based, HEK293
[2] = Ratio of unbound concentration in brain to unbound concentration in plasma in Sprague-Dawley rat at 2 umol/kg/hr, iv administered as infusion measured after 4 hrs; format: ADME, organism-based; conditions: brain and plasma (unbound concentrations), read-out: K(p,uu,brain)
Cytochrome P450 2D6 = Cytochrome P450 2D6 (Homo sapiens, UniProt P10635); assay: Inhibition of human recombinant CYP2D6-mediated 7-methoxy-4(aminomethyl)-coumarine degradation; format: ADME
Liver microsomes = assay: Drug metabolism in human liver microsomes assessed as glutathione-adduct reactive metabolite formation at 1 mg/ml after 30 mins; format: ADME, Microsome; conditions: 0.5 h
[3] = Intrinsic clearance in human liver microsomes at 1 mg/ml after 45 mins; format: ADME, Microsome; conditions: read-out: CLH
[4] = target: Voltage-gated inwardly rectifying potassium channel KCNH2 (Homo sapiens, UniProt Q12809); assay: Inhibition of human ERG expressed in CHO cells by IONWORKS assay; format: cell-based
Canis familiaris = assay: Cardioprotective activity in iv dosed beagle dog atrial fibrillation model assessed as reduction in heart rate administered as infusion for over 20 mins followed by 60-mins washout period by ECG analysis relative to control; format: functional, organism-based; conditions: Canis lupus familiaris
[5] = Clearance in beagle dog at 1 mg/kg, iv; format: ADME, organism-based, Canis lupus familiaris; design: dose 1 mg/kg, route intravenous; conditions: in vivo
[6] = target: Voltage-dependent L-type calcium channel subunit alpha-1C (Homo sapiens, UniProt Q13936); assay: Inhibition of calcium channel Cav1.2 (unknown origin) expressed in CHO cells by IONWORKS patch clamp assay; format: cell-based
[7] = target: Sodium channel protein type 5 subunit alpha (Homo sapiens, UniProt Q14524); assay: Inhibition of human Nav1.5 channel expressed in CHO cells by IONWORKS patch clamp assay; format: cell-based
[8] = Solubility of the compound at pH 7.4; format: physicochemical; conditions: buffer
[9] = target: T2, Potassium/sodium hyperpolarization-activated cyclic nucleotide-gated channel 4 (Homo sapiens, UniProt Q9Y3Q4); assay: Inhibition of human HCN4 channel expressed in CHO cells by IONWORKS patch clamp assay; format: cell-based
T2 sequence (Q9Y3Q4 whole entry): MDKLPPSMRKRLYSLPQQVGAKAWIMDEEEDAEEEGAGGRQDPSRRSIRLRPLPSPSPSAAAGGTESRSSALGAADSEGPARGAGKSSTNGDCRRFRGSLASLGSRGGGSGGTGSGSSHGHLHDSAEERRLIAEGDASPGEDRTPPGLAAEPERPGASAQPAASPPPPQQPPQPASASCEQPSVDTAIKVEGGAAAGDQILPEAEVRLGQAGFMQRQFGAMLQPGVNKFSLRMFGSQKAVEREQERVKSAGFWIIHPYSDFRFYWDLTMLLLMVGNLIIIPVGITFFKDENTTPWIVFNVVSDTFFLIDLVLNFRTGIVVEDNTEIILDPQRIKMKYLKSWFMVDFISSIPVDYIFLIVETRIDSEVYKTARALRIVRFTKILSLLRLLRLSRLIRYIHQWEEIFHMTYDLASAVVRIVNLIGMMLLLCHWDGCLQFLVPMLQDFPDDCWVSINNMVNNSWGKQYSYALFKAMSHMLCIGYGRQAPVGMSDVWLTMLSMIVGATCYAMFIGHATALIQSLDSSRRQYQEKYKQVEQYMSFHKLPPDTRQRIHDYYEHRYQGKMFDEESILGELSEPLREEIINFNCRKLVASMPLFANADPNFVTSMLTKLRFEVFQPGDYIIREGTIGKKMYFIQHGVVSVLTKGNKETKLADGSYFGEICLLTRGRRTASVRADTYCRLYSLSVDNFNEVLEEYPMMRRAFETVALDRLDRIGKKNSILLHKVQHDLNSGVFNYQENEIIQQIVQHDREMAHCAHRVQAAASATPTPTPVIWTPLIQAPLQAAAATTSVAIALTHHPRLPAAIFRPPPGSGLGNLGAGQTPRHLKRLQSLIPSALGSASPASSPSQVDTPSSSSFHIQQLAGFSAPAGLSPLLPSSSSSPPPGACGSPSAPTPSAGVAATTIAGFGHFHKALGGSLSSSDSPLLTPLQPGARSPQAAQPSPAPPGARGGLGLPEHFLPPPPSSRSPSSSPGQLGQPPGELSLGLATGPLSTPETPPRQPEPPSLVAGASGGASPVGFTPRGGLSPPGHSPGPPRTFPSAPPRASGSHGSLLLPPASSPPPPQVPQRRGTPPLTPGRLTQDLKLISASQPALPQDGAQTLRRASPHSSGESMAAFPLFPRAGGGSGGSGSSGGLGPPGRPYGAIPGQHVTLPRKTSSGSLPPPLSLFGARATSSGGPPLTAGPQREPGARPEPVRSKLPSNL

[10] = target: T1, Voltage-dependent T-type calcium channel subunit alpha-1H; assay: Inhibition of T-type calcium channel Cav3.2 (unknown origin) by IONWORKS assay
[11] = target: Voltage-gated potassium channel, IKs; KCNQ1(Kv7.1)/KCNE1(MinK) (Homo sapiens, UniProt P15382+P51787); assay: Inhibition of human IKs channel expressed in CHO cells by IONWORKS patch clamp assay; format: cell-based
[12] = target: T3, A-type voltage-gated potassium channel KCND3 (Homo sapiens, UniProt Q9UK17); assay: Inhibition of human Kv4.3 channel expressed in CHO cells by IONWORKS patch clamp assay; format: cell-based
T3 sequence (Q9UK17 whole entry): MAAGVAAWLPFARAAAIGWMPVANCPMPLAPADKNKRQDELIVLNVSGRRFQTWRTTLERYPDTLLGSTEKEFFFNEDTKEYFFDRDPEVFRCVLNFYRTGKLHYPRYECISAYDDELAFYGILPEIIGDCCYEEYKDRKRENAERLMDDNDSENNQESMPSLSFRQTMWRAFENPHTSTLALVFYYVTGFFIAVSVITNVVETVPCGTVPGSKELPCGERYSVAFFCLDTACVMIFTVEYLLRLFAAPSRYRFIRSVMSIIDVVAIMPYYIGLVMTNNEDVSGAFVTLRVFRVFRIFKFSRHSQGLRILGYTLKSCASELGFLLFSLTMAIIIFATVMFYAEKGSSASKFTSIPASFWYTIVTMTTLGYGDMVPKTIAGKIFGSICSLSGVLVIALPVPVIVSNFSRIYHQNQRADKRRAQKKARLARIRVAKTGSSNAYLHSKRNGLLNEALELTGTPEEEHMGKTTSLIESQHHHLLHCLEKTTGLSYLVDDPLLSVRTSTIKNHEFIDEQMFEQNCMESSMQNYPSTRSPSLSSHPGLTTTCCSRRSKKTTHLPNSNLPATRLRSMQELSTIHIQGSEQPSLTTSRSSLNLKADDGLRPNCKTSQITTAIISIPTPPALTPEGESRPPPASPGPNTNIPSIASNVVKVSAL

[13] = Oral bioavailability in beagle dog at 3 mg/kg; format: ADME, organism-based, Canis lupus familiaris; conditions: in vivo

T1 sequence (O95180 whole entry, the tested form may be a part): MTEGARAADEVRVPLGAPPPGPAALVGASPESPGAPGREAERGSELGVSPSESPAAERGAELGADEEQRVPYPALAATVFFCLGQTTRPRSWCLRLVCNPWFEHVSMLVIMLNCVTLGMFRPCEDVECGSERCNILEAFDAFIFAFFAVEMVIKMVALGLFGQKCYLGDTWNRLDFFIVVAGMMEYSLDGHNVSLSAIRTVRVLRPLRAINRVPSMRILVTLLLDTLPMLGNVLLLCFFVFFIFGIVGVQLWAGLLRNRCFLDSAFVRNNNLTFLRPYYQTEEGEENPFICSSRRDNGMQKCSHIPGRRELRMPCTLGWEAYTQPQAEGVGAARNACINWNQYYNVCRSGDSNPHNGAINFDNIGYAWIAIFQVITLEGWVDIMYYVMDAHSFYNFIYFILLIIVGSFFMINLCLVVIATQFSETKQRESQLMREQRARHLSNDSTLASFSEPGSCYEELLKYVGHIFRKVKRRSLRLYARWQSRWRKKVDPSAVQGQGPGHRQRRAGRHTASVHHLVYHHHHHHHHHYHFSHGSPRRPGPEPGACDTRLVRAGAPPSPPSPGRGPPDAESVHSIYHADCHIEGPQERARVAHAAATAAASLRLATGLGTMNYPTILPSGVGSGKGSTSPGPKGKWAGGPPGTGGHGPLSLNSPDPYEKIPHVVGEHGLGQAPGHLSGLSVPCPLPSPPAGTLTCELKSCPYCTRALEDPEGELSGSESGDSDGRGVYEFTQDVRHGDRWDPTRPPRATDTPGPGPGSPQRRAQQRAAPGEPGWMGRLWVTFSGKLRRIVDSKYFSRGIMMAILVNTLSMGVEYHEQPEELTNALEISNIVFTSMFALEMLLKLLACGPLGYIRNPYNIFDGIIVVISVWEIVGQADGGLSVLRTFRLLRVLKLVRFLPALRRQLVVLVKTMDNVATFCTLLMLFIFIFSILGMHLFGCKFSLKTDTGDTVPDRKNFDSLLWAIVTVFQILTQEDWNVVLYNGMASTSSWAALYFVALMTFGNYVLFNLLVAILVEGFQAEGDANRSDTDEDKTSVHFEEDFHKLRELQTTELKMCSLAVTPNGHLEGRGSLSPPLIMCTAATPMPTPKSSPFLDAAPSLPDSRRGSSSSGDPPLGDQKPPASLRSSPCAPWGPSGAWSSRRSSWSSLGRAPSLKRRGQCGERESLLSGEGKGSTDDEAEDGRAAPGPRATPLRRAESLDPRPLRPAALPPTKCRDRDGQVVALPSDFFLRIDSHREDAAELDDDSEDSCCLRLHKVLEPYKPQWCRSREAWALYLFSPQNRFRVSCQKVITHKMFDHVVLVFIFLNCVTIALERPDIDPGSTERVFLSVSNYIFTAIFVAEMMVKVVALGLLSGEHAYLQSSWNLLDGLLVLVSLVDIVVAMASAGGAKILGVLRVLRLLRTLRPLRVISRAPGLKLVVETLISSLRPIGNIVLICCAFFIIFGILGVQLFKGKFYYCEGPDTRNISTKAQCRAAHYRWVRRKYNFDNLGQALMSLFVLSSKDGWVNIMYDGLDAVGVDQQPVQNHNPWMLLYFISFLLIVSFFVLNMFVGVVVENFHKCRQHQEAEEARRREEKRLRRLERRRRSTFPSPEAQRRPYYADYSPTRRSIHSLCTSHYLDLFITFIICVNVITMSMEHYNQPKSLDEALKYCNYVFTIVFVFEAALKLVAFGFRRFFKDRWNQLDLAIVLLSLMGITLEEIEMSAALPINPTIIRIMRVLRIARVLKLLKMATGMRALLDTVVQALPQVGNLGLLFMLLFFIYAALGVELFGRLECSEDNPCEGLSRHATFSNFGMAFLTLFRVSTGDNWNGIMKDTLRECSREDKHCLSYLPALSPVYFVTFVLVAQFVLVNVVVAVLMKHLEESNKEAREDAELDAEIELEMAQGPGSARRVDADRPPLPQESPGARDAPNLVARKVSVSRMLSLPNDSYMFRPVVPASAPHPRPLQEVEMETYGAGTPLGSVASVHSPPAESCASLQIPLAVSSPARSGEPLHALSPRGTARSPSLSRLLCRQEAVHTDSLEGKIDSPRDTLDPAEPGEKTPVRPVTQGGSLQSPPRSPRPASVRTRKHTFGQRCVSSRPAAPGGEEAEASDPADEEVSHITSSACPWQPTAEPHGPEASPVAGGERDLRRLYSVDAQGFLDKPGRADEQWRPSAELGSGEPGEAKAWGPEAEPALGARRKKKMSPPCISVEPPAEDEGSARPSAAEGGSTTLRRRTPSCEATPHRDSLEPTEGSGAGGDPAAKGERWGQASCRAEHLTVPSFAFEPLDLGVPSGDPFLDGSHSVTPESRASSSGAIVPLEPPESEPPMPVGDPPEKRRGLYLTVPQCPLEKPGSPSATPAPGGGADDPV
Sequence of Cytochrome P450 2D6 (P10635 whole entry): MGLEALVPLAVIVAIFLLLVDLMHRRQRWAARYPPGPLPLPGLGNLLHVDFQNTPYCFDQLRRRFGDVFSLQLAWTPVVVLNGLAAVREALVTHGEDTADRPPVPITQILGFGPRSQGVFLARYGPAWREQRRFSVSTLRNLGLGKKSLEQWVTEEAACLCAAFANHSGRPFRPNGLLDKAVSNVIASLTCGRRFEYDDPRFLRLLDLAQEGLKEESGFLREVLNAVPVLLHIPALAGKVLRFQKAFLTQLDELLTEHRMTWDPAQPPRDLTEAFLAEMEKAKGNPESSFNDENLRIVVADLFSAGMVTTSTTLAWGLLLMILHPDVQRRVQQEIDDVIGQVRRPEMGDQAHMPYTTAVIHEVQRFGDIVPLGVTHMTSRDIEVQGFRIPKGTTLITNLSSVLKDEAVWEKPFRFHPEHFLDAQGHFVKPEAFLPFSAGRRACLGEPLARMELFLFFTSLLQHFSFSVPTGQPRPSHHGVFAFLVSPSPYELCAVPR
Sequence of Voltage-gated inwardly rectifying potassium channel KCNH2 (Q12809 whole entry, the tested form may be a part): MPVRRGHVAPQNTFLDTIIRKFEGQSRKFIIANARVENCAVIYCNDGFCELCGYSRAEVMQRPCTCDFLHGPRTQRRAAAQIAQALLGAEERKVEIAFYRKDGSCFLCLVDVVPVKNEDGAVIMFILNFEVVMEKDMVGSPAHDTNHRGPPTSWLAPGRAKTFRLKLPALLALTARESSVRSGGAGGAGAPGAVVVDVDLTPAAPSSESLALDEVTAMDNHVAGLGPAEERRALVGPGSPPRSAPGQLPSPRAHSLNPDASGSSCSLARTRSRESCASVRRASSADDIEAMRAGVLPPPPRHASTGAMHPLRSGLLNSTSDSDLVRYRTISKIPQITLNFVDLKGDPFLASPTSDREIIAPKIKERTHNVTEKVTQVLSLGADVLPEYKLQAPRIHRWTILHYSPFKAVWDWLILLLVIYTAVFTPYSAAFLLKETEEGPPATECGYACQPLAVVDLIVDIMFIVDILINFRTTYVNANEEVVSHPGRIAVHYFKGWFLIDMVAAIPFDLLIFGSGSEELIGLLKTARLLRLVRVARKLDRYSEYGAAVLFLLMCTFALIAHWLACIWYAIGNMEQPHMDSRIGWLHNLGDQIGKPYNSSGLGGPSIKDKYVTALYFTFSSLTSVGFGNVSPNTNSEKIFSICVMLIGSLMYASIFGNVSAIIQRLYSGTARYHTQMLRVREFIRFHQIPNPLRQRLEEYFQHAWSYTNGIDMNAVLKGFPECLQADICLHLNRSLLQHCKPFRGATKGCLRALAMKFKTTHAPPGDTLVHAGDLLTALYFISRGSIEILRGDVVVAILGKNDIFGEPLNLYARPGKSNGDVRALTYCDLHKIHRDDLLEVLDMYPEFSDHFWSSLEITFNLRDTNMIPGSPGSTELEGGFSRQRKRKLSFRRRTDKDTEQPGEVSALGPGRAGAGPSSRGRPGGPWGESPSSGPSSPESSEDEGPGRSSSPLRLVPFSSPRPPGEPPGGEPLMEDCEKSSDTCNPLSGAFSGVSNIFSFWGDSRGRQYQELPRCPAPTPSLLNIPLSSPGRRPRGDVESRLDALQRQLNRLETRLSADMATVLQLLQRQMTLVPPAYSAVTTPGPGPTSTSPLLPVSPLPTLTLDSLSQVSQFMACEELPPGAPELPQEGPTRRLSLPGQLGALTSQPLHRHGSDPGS
Sequence of Voltage-gated potassium channel, IKs; KCNQ1(Kv7.1)/KCNE1(MinK) (P51787 whole entry): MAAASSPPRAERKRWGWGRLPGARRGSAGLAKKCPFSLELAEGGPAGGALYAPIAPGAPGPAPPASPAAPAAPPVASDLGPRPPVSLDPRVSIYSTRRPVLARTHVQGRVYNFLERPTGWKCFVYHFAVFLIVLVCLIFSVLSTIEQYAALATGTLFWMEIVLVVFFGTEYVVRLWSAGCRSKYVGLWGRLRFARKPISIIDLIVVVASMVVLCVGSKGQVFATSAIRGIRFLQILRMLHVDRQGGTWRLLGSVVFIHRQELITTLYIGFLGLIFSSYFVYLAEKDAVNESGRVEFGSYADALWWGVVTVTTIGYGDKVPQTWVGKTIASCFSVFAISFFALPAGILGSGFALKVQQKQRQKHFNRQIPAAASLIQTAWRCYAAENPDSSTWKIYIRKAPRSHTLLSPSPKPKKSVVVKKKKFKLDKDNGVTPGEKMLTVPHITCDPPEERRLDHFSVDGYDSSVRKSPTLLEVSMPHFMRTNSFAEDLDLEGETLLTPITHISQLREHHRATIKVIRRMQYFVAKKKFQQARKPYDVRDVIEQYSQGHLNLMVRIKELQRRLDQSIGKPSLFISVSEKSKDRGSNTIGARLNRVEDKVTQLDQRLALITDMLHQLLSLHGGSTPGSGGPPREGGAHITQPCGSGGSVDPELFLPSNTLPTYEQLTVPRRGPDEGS

| Compound | IC50 [1] [nM] | IC50 (Cytochrome P450 2D6) [nM] | Drug metabolism (Liver microsomes) | microsomal CLint [3] [µL/min/mg] | IC50 [4] [nM] | further results |
| --- | --- | --- | --- | --- | --- | --- |
| CC(C)(C)C(=O)NCCN1CCN(CC(=O)NC23CC4CC(CC(C4)C2)C3)CC1 | 3000 | – | – | – | – | – |
| CC(C)(C)NC(=O)CN1CCN(CC(=O)NC23CC4CC(CC(C4)C2)C3)CC1 | 1000 | – | – | – | – | Kp uu at 4 h [2]: 0.4 |
| CC(C)(C)CS(=O)(=O)NCCN1CCN(CC(=O)NC23CC4CC(CC(C4)C2)C3)CC1 | 900 | – | – | – | – | Kp uu at 4 h [2]: 0.3 |
| CC(C)(C)NC(=O)NCCN1CCC(CNC(=O)c2cc(Cl)cc(Cl)c2)C1 (configuration not stated) | 400 | 1000 | Active | < 5 | 5800 | – |
| CC(C)(C)NC(=O)NCCN1CCC(NC(=O)c2cc(Cl)cc(Cl)c2)C1 (configuration not stated) | 800 | 2600 | Active | 15 | 6600 | – |
| CC(C)(C)NC(=O)NCCN1CCCC(CNC(=O)c2cc(Cl)cc(Cl)c2)C1 (configuration not stated) | 500 | 1600 | Not Active | 16 | – | – |
| CC(C)(C)NC(=O)NCCN1CCN(CC(=O)Nc2cc(Cl)cc(Cl)c2)CC1 | 300 | 8000 | – | 29 | 1600 | – |
| CC(C)(C)S(=O)(=O)CCCN1CCN(CC(=O)NC23CC4CC(CC(C4)C2)C3)CC1 | 2400 | – | – | – | – | Kp uu at 4 h [2]: 0.3 |
| CC(C)(C)NC(=O)NCCN1CCC(O)(CNC(=O)c2cc(Cl)cc(Cl)c2)CC1 | 600 | 14000 | Active | 6 | > 33000 | – |
| CC(C)(C)NC(=O)NCCN1CCC(CNC(=O)c2cc(Cl)cc(Cl)c2)CC1 | 500 | 3400 | Not Active | < 5 | 13000 | – |
| CC(C)(C)NCCN1CCN(CC(=O)NC23CC4CC(CC(C4)C2)C3)CC1 | 4900 | – | – | – | – | – |
| CC(C)(C)C(=O)NCCCN1CCN(CC(=O)NC23CC4CC(CC(C4)C2)C3)CC1 | 1300 | – | – | – | – | – |
| CC(C)(C)NC(=O)NCCN1CCN(CC(=O)NC23CC4CC(CC(C4)C2)C3)CC1 | 500 | > 20000 | – | 100 | > 33000 | Kp uu at 4 h [2]: 0.02 |
| O=C(CN1CCN(CCC2CCOCC2)CC1)NC12CC3CC(CC(C3)C1)C2 | – | – | – | – | – | Kp uu at 4 h [2]: 1.2 |
| CC(C)(C)NC(=O)NCCN1CC(NC(=O)c2cc(Cl)cc(Cl)c2)C1 | 800 | 4500 | Active | 4 | – | – |
| COCC(=O)O[C@]1(CCN(C)CCCc2nc3ccccc3[nH]2)CCc2cc(F)ccc2[C@@H]1C(C)C [MIBEFRADIL] | – | 63 | Active | 56.5 | – | – |
| CC(C)(C)NC(=O)NCCN1CCC(CO)(CNC(=O)c2cc(Cl)cc(Cl)c2)CC1 | 600 | 13000 | Not Active | 7 | > 33000 | Activity (Canis familiaris): Dose-dependent effect; clearance [5]: 17 mL/min/kg; IC50 [6]: > 31600 nM; IC50 [7]: > 33000 nM; solubility [8]: 460 µM (≈ 211 µg/mL); IC50 [9]: > 33000 nM; IC50 [10]: 1200 nM; IC50 [11]: > 33000 nM; IC50 [12]: > 33000 nM; bioavailability [13]: 22% |
| CC(C)(C)NC(=O)NCCCN1CCN(CC(=O)NC23CC4CC(CC(C4)C2)C3)CC1 | 1200 | – | – | – | – | – |
| CC(C)(C)NC(=O)NCCN1CCOC(CNC(=O)c2cc(Cl)cc(Cl)c2)C1 (configuration not stated) | 3300 | > 20000 | Active | 47 | > 33000 | – |
| CC(C)(C)OC(=O)NCCN1CCN(CC(=O)NC23CC4CC(CC(C4)C2)C3)CC1 | 1200 | – | – | – | – | – |
| CC(C)(C)NC(=O)NCCN1CCCC(NC(=O)c2cc(Cl)cc(Cl)c2)C1 (configuration not stated) | 500 | 8300 | Active | 48 | 4100 | – |
